# Test results taken from paper PMC4092041 (Journal of cardiovascular pharmacology, 2014).
# How the values were obtained:
# [1] = Stability of EpFAs at 37°C, neutral pH; assay type: physicochemical
# [2] = tested on: P450 metabolites of the ARA cascade / sEH; assay: Oxylipin profiling: P450 and sEH metabolites; conditions: for Increase in plasma levels of the infused EpFA vs Ang II infused animals: subcutaneous infusion, corresponding groups
# COX pathway = conditions: kidney; P < 0.05
# sEH = conditions: cited from earlier work
# [3] = tested on: angiotensin-II dependent hypertension; assay: Systolic blood pressure; assay type: in vivo, mice; conditions: overall mixed effects analysis, all days; TPPU alone 0.2 mg/kg in drinking water; P < 0.05
# LOX pathway = assay: Oxylipin profiling: LOX metabolites; assay type: in vivo, mice; conditions: kidney; TPPU 0.2 mg/kg
# Body weight gain = assay type: in vivo; conditions: Ang II infused mice
# [4] = tested on: angiotensin-II dependent hypertension; conditions: TPPU 0.2 and 0.6 mg/kg; cited from earlier work
# [5] = cited from earlier work
smiles,measurement,setting,value
"CCCCCC1OC1C/C=C\C/C=C\C/C=C\CCCC(=O)O (stereo not shown) [14, 15-EET, epoxyeicosatrienoic acid]",Stability,[1],quite stable
same,Increase in plasma levels of the infused EpFA vs Ang II infused animals,[2]; P < 0.05,approximately 2 fold
"CCC1OC1C/C=C\C/C=C\C/C=C\C/C=C\C/C=C\CCC(=O)O (stereo not shown) [19, 20-EDP, epoxydocosapentaenoic acid]",Stability,[1],quite stable
same,Tissue levels of PGE2 vs Ang II infusion alone,COX pathway,significantly decreased by half
same,Rate of metabolism by sEH compared to most other fatty acid epoxides tested,sEH,more slowly metabolized
same,"Tissue levels of 19, 20-EDP relative to tissue levels of 14, 15-EET",[2]; animals receiving these EpFAs,6 times
same,"Renal levels of 14, 15-EET vs Ang II infused animals","[2]; kidney, TPPU 0.2 mg/kg",significantly decreased
same,Increase in plasma levels of the infused EpFA vs Ang II infused animals,[2]; P < 0.05,approximately 2 fold
CCC(=O)N1CCC(NC(=O)Nc2ccc(OC(F)(F)F)cc2)CC1 [TPPU],SBP (percent change from baseline) vs Ang II infused controls,[3],statistically lower SBP
same,"Tissue levels of 15(S)-HETrE vs 19, 20-EDP treatment alone",LOX pathway,increased
same,"Tissue levels of 15-HETE vs 19, 20-EDP treatment alone",LOX pathway,increased
same,Body weight gain,Body weight gain,did not alter body weight gain
same,"Renal PGD2 vs Ang II infusion and 19, 20-EDP alone",COX pathway,decreased
same,Blood pressure in Ang II hypertension,[4],lower blood pressure to near baseline levels
same,"Increase in renal DiHOMEs vs 19, 20-EDP alone or Ang II infusion","[2]; TPPU 0.2 mg/kg, P < 0.05",approximately 3 fold
same,"Renal levels of 19, 20-EDP vs Ang II alone or 19, 20-EDP treated animals","[2]; kidney, TPPU 0.2 mg/kg",significantly increased
same,"Summed plasma concentration of DiHDPEs vs 19, 20-EDP treatment alone","[2]; plasma, TPPU 0.2 mg/kg",decreased significantly
CCCCc1nc(Cl)c(CO)n1Cc1ccc(-c2ccccc2-c2nn[nH]n2)cc1 [losartan],Adverse effect on monovalent cation balance,[5],hyperkalemia
same,BP in normotensive animals,[5],reduced BP
